Assay results as given in patent US6878690B2, “Compounds and methods” (PharmAxis Pty Ltd., priority 2000, dated 2005).
Several values for one entry are separate records, joined by “and”; a condition that tells them apart may be missing. Equal entries are not always repeated.

Assays:
[1] = system: passively transferred EAE; test: Passively transferred EAE induced with concanavalin A stimulated spleen lymphoblasts (Example 24); type: in vivo, Lewis rats; parameters: key to Clinical score - Treated, Mean: 0 = asymptomatic to 5 = hind limb paralysis; conditions: for Clinical score - Treated, Mean: group mean; for Mean maximum clinical score / DI (disease index): treated group
Experimental: In a similar type of experiment outlined in Example 20, and in order to study the effect of the agents of the present invention in vivo on a disease caused by T lymphocyte migration into a specific tissue, further experiments were performed in a Lewis rat model of passively transferred EAE. Here, myelin basic protein (MBP)-specific T lymphocytes were generated in spleens of Lewis rats that had been immunised with guinea pig MBP in Freund's complete adjuvant. Thus, in this manner donor T lymphocytes were generated from male 12-20 week old Lewis rats weighing 200 to 250 g. These rats were injected intradermally in a footpad of each hind foot with an emulsion of guinea pig myelin basic protein (MBP; prepared according to the method of Deibler et al., 1972; incorporated herein by reference) in Freund's complete adjuvant (0.1 ml). The adjuvant emulsion was prepared by emulsifying equal volumes of a mixture of 85% light mineral oil (0.8417 g/mL (Sigma)) plus 15% mannide monooleate (Sigma) containing Mycobacterium butyricum (4 mg/ml; Difco) and normal saline containing guinea pig myelin basic protein (0.25 mg/ml). Thus, the total dose per rat was 25 micrograms of MBP and 400 micrograms of M. butyricum. Ten days following injection, the rats were euthanased and the spleens removed aseptically by blunt dissection and placed into mixed lymphocyte culture medium. This medium was prepared in the normal fashion from Dulbecco's Modified Eagle's Medium (DMEM; GIBCO, Grand Island, N.Y.) supplemented with glucose (4 g/L), folic acid (6 mg/L), L-asparagine (36 mg/L), sodium bicarbonate (2 g/L), L-arginine (116 mg/L), L-glutamine (2 mM), sodium pyruvate (1 mM), HEPES (10 mM), 2-mercaptoethanol (5×10^−5 M), penicillin, streptomycin, neomycin, and 10% fetal calf serum. A single cell suspension was prepared from the spleens in the usual manner by gently pushing them through a stainless steel screen. The cells were washed twice and cultured asceptically for 72 hours at 37° C. in a humidified atmosphere containing 5% carbon dioxide at a concentration of 2 million cells per milliliter in the presence of concanavalin A (2 microgram/mL). The cells were collected and washed twice in Hanks balanced salt solution. Cells were resuspended in Hanks balanced salt solution and each recipient animal (10-12 weeks old female Lewis rats; 160-180 g) received 40-42.5 million lymphoblasts by lateral tail vein injection in a volume of 0.5 ml.
In a typical experiment 4-5 recipient rats were anesthetised with diethyl ether and implanted with mini-osmotic pumps (Alzet 2001, Alza Corp., Palo Alto Calif., USA) containing the test compound. A second group of 4 animals, the control group, under ether anesthesia, were implanted with Alzet 2001 pumps containing normal saline. Mini-osmotic pumps were implanted three days after cell transfer. Disease severity (clinical score) was scored on an arbitrary scale of severity ranging from 0 to 5 as follows: 0, asymptomatic; 1, flaccid distal half of tail; 2, entire tail flaccid; 3, ataxia, difficulty in righting reflex; 4, hind limb weakness; 5, hind limb paralysis. Mean maximum clinical scores were calculated and the disease index (DI) for each group was calculated as described in Example 20. The results of these experiments are outlined in Tables 6, 7 and 8.

[2] = system: DTH response to 2,4-dinitrofluorobenzene (DNFB); test: Delayed-type hypersensitivity (DTH) response to DNFB, ear swelling; type: in vivo, Balb/C mice; conditions: for Mean percentage decrease in ear swelling in treated animals: versus saline controls; for Mean Difference, Treated: group mean; for Difference (right minus left ear), Treated / Right ear thickness, Treated / Left ear thickness, Treated: individual mice, 24 hours after challenge; for Right ear thickness, Treated: challenged ear; for Left ear thickness, Treated: control (unchallenged) ear
Description: In the present Example, a murine model of Type IV hypersensitivity or delayed-type hypersensitivity (DTH) response to cutaneous contact with the chemical hapten 2,4-dinitrofluorobenzene (DNFB) (Aldrich Chemical Company Inc, USA) was used as a model to measure the anti-inflammatory effects of compounds of the present invention. Specific pathogen-free 8-12 week old female Balb/C mice, weighing 19-21 g, were sensitised in a similar manner to that described by Klimuk et al., (Klimuk et al., 1999) by applying a solution of DNFB (0.5% in acetone:olive oil (4:1, v/v); 30 microliters,) onto a 2 cm^2 shaved area of the abdomen. After 7 days, the animals were anesthetised with diethyl ether and 8 microliters of DNFB (0.35% in acetone:olive oil (4:1, v/v) was applied to the dorsal and ventral surfaces of the right pinna. Prior to regaining consciousness, the mice were implanted intraperitoneally with Alzet 2001 mini-osmotic pumps (Alza Corp., Palo Alto Calif., USA) containing phosphoric acid mono-[6-(3-hexyloxy-propyl)-3,4,5-trihydroxy-tetrahydro-pyran-2-ylmethyl] ester, sodium salt in normal saline. The dose delivered was 50 mg/kg/day. Control animals for this group received saline delivered in identical mini-osmotic pumps. A second experimental group of mice received phosphoric acid mono-[3-(3,4,5-trihydroxy-6-phosphonooxymethyl-tetrahydro-pyran-2-yl)-propyl] ester disodium salt via one-week delivery Alzet 2001 mini-osmotic pumps implanted intraperitoneally. This compound was delivered at a dose of 40 mg/kg/day. Control animals for this group received saline delivered in identical mini-osmotic pumps. In a third experiment a separate group of mice received (3,4,5-trihydroxy-6-phosphonooxymethyl-tetrahydro-pyran-2-yl)-acetic acid disodium salt via one-week delivery Alzet 2001 mini-osmotic pumps that were placed intraperitoneally. This compound was delivered at 45 mg/kg/day. The control group for this experiment received identical mini-osmotic pumps containing normal saline. In a fourth experiment a group of mice received 3-phenyl-2-[2-(3,4,5-trihydroxy-6-phosphonooxymethyl-tetrahydro-pyran-2-yl)-acetylamino]-propionic acid monosodium salt via one-week delivery Alzet 2001 mini-osmotic pumps that were placed subcutaneously. This compound was delivered at 62 mg/kg/day. The control group for this experiment received identical mini-osmotic pumps containing normal saline. In a fifth experiment a group of mice received hexanoic acid 3-(3,4,5-trihydroxy-6-phosphonooxymethyl-tetrahydro-pyran-2-yl)-propyl ester sodium salt via one-week delivery Alzet 2001 mini-osmotic pumps that were placed subcutaneously. This compound was delivered at 40 mg/kg/day. The control group for this experiment received identical mini-osmotic pumps containing normal saline.
Twenty-four hours after challenge the mice were lightly anesthetised with diethyl ether and the thickness of the left and right pinnae measured (in millimeters) using a dial gauge micrometer (Interapid, Switzerland). Care was taken to measure only the outer two thirds of the ear. The increase in ear thickness initiated by the DTH response was determined by subtracting the measurement of the left ear (untreated) from the right ear (challenged).
In Table 4, values in the columns labeled Left and Right are measurements of ear thickness in millimeters of the control and challenged ears respectively.

[3] = 62 mg/kg/day, mini-osmotic pump subcutaneously, monosodium salt
[4] = 40 mg/kg/day, mini-osmotic pump subcutaneously, monosodium salt
[5] = 40 mg/kg/day, mini-osmotic pump intraperitoneally, disodium salt

Which results are given for `O=C(CC1OC(COP(=O)(O)O)C(O)C(O)C1O)NC(Cc1ccccc1)C(=O)[O-].[Na+]` (stereo not drawn) [3-phenyl-2-[2-(3,4,5-trihydroxy-6-phosphonooxymethyl-tetrahydro-pyran-2-yl)-acetylamino]-propionic acid monosodium salt]?
Clinical score - Treated, Mean ([1]; day 4, 62 mg/kg/day subcutaneously): 0; Clinical score - Treated ([1]; day 4, individual rats, 62 mg/kg/day subcutaneously, scale 0 to 5): 0; Clinical score - Treated, Mean ([1]; day 5, 62 mg/kg/day subcutaneously): 0.8; Clinical score - Treated ([1]; day 5, individual rats, 62 mg/kg/day subcutaneously, scale 0 to 5, monosodium salt, 62 mg/kg/day): 0 (2×) and 1 (2×) and 2; Clinical score - Treated, Mean ([1]; day 6, 62 mg/kg/day subcutaneously): 0.9; Clinical score - Treated ([1]; day 6, individual rats, 62 mg/kg/day subcutaneously, scale 0 to 5, monosodium salt, 62 mg/kg/day): 0 and 0.5 and 1 (2×) and 2; Clinical score - Treated, Mean ([1]; day 7, 62 mg/kg/day subcutaneously): 0.7; Clinical score - Treated ([1]; day 7, individual rats, 62 mg/kg/day subcutaneously, scale 0 to 5, monosodium salt, 62 mg/kg/day): 0 (2×) and 0.5 and 1 and 2; Clinical score - Treated, Mean ([1]; day 8, 62 mg/kg/day subcutaneously): 0.7; Clinical score - Treated ([1]; day 8, individual rats, 62 mg/kg/day subcutaneously, scale 0 to 5, monosodium salt, 62 mg/kg/day): 0 (2×) and 1 (2×) and 1.5; Clinical score - Treated, Mean ([1]; day 9, 62 mg/kg/day subcutaneously): 0.4; Clinical score - Treated ([1]; day 9, individual rats, 62 mg/kg/day subcutaneously, scale 0 to 5, monosodium salt, 62 mg/kg/day): 0 (3×) and 0.5 and 1; Clinical score - Treated, Mean ([1]; day 10, 62 mg/kg/day subcutaneously): 0.2; Clinical score - Treated ([1]; day 10, individual rats, 62 mg/kg/day subcutaneously, scale 0 to 5, monosodium salt, 62 mg/kg/day): 0 (3×) and 0.5 (2×); Mean maximum clinical score ([1]; 62 mg/kg/day subcutaneously, control 1.5): clinical score 1.0; DI (disease index) ([1]; 62 mg/kg/day subcutaneously, control DI 14.1): DI - 8.13 Mean maximum; Mean percentage decrease in ear swelling in treated animals ([2]; 62 mg/kg/day subcutaneously): Mean percentage decrease in ear swelling in treated animals: 49.3%; Mean Difference, Treated ([2]; 62 mg/kg/day subcutaneously, saline control mean 0.134): 0.068 millimeters; Difference (right minus left ear), Treated [2, 3]: 0.11 millimeters and 0.09 millimeters and 0.06 millimeters and 0.04 millimeters (2×); Right ear thickness, Treated [2, 3]: 0.33 millimeters and 0.31 millimeters and 0.29 millimeters and 0.25 millimeters (2×); Left ear thickness, Treated [2, 3]: 0.22 millimeters (2×) and 0.23 millimeters and 0.21 millimeters (2×)

Which results are given for `CCCCCC(=O)OCCCC1OC(COP(=O)(O)O)C(O)C(O)C1O.[Na]` (stereo not drawn) [hexanoic acid 3-(3,4,5-trihydroxy-6-phosphonooxymethyl-tetrahydro-pyran-2-yl)-propyl ester monosodium salt]?
Mean percentage decrease in ear swelling in treated animals ([2]; 40 mg/kg/day subcutaneously): Mean percentage decrease in ear swelling in treated animals: 47.6%; Mean Difference, Treated ([2]; 40 mg/kg/day subcutaneously, saline control mean 0.126): 0.066 millimeters; Difference (right minus left ear), Treated [2, 4]: 0.07 millimeters (2×) and 0.08 millimeters and 0.05 millimeters and 0.06 millimeters; Right ear thickness, Treated [2, 4]: 0.29 millimeters (3×) and 0.28 millimeters and 0.27 millimeters; Left ear thickness, Treated [2, 4]: 0.22 millimeters (2×) and 0.21 millimeters (2×) and 0.23 millimeters

What does the source list for `O=P([O-])([O-])OCCCC1OC(COP(=O)(O)O)C(O)C(O)C1O.[Na+].[Na+]` (stereo not drawn) [phosphoric acid mono-[3-(3,4,5-trihydroxy-6-phosphonooxymethyl-tetrahydro-pyran-2-yl)-propyl] ester disodium salt]?
Clinical score - Treated, Mean ([1]; day 4, 40 mg/kg/day intraperitoneally): 0; Clinical score - Treated ([1]; day 4, individual rats, 40 mg/kg/day intraperitoneally, scale 0 to 5): 0; Clinical score - Treated, Mean ([1]; day 5, 40 mg/kg/day intraperitoneally): 1.375; Clinical score - Treated ([1]; day 5; individual rats; 40 mg/kg/day intraperitoneally; scale 0 to 5; disodium salt, 40 mg/kg/day)): 2 (2×) and 0 and 1.5; Clinical score - Treated, Mean ([1]; day 7, 40 mg/kg/day intraperitoneally): 2.125; Clinical score - Treated ([1]; day 7; individual rats; 40 mg/kg/day intraperitoneally; scale 0 to 5; disodium salt, 40 mg/kg/day)): 2.5 and 1 and 3 and 2; Clinical score - Treated, Mean ([1]; day 8, 40 mg/kg/day intraperitoneally): 1.75; Clinical score - Treated ([1]; day 8; individual rats; 40 mg/kg/day intraperitoneally; scale 0 to 5; disodium salt, 40 mg/kg/day)): 2 (2×) and 0.5 and 2.5; Clinical score - Treated, Mean ([1]; day 9, 40 mg/kg/day intraperitoneally): 0.75; Clinical score - Treated ([1]; day 9; individual rats; 40 mg/kg/day intraperitoneally; scale 0 to 5; disodium salt, 40 mg/kg/day)): 1 (3×) and 0; Clinical score - Treated, Mean ([1]; day 10, 40 mg/kg/day intraperitoneally): 0.125; Clinical score - Treated ([1]; day 10; individual rats; 40 mg/kg/day intraperitoneally; scale 0 to 5; disodium salt, 40 mg/kg/day)): 0 (3×) and 0.5; Mean maximum clinical score ([1]; 40 mg/kg/day intraperitoneally, control 3.0): clinical score 2.3; DI (disease index) ([1]; 40 mg/kg/day intraperitoneally, control DI 45.0): DI - 18.6 Mean maximum; Mean percentage decrease in ear swelling in treated animals ([2]; 40 mg/kg/day intraperitoneally): Mean percentage decrease in ear swelling in treated animals: 30%; Mean Difference, Treated ([2]; 40 mg/kg/day intraperitoneally, saline control mean 0.086): 0.060 millimeters; Difference (right minus left ear), Treated [2, 5]: 0.07 millimeters and 0.03 millimeters and 0.02 millimeters and 0.06 millimeters and 0.12 millimeters; Right ear thickness, Treated [2, 5]: 0.28 millimeters (2×) and 0.25 millimeters and 0.23 millimeters and 0.33 millimeters; Left ear thickness, Treated [2, 5]: 0.21 millimeters (3×) and 0.22 millimeters (2×)
